Results: patent US20230301300A1, “HERBICIDAL COMPOSITIONS” (SYNGENTA CROP PROTECTION AG, priority 2020, published 2023)

How the values were obtained:
Format in all cases: in vivo
[1] = system: Amaranthus retoflexus (AMARE); assay: B1 Post-Emergence Efficacy - Test 1; details: 1000 g/ha, after 13 days, five point scale
Method: (§1) Seeds of a variety of test species are sown in standard soil in pots:— Solanum nigrum (SOLNI), Amaranthus retoflexus (AMARE), Setaria faberi (SETFA), Alopecurus myosuroides (ALOMY), Echinochloa crus-galli (ECHCG), Ipomoea hederacea (IPOHE), Lolium perenne (LOLPE). After 8 days cultivation (post-emergence) under controlled conditions in a glasshouse (at 24/16° C., day/night; 14 hours light; 65% humidity), the plants are sprayed with an aqueous spray solution derived from the formulation of the technical active ingredient in acetone/water (50:50) solution containing 0.5% Tween 20 (polyoxyethylene sorbitan monolaurate, CAS RN 9005-64-5). Compounds are applied at 1000 g/ha. The test plants are then grown in a glasshouse under controlled conditions in a glasshouse (at 24/16° C., day/night; 14 hours light; 65% humidity) and watered twice daily. After 13 days, the test is evaluated for the percentage damage caused to the plant. The biological activities are assessed on a five point scale (5=80-100%; 4=60-79%; 3=40-59%; 2=20-39%; 1=0-19%). A blank value in the table is indicative that the compound was not tested on that species.

[2] = system: Echinochloa crus-galli (ECHCG); assay: B1 Post-Emergence Efficacy - Test 1; details: 1000 g/ha, after 13 days, five point scale
Method: as §1

[3] = system: Ipomoea hederacea (IPOHE); assay: B1 Post-Emergence Efficacy - Test 1; details: 1000 g/ha, after 13 days, five point scale
Method: as §1

Lolium perenne (LOLPE) = assay: B1 Post-Emergence Efficacy - Test 1; details: 1000 g/ha, after 13 days, five point scale
Method: as §1

Setaria faberi (SETFA) [4] = assay: B1 Post-Emergence Efficacy - Test 1; details: 1000 g/ha, after 13 days, five point scale
Method: as §1

Solanum nigrum (SOLNI) = assay: B1 Post-Emergence Efficacy - Test 1; details: 1000 g/ha, after 13 days, five point scale
Method: as §1

[5] = system: Amaranthus retroflexus (AMARE); assay: B2 Post-Emergence Efficacy - Test 2; details: 15 days after application, 0-100 scale
Method: (§2) Seeds of a variety of test species (see Table B1) were sown in standard soil in pots. After cultivation for 12 days (post-emergence) under controlled conditions in a glasshouse (at 24/18° C. or 20/16° C., at day/night; 16 hours light; 65% humidity), the plants were sprayed with an aqueous spray solution derived from the formulation of the technical active ingredient dissolved in IF50 (see Table B2 for composition) and adjuvant (Genapol X080) was added to the spray solution at a rate of 0.2% v/v.
(§3) After application, the test plants were grown in a glasshouse under controlled conditions (as above) and watered twice daily. Herbicidal activity was evaluated 15 days after application on a 0-100 scale. The results, where 0=no damage to test plant and 100=total kill of test plant are shown below in Tables 8 to 11.

Bidens pilosa (BIDPI) = assay: B2 Post-Emergence Efficacy - Test 2; details: 15 days after application, 0-100 scale
Method: as §2, §3

[6] = system: Brachiaria plantaginea (BRAPL); assay: B2 Post-Emergence Efficacy - Test 2; details: 15 days after application, 0=no damage, 100=total kill
Method: as §2, §3

[7] = system: Chenopodium album (CHEAL); assay: B2 Post-Emergence Efficacy - Test 2; details: 15 days after application, 0-100 scale
Method: as §2, §3

[8] = system: Echinochloa crus galli (ECHCG); assay: B2 Post-Emergence Efficacy - Test 2; details: 15 days after application, 0=no damage, 100=total kill
Method: as §2, §3

Hordeum vulgare (HORVW) = assay: B2 Post-Emergence Efficacy - Test 2; details: 15 days after application, 0-100 scale
Method: as §2, §3

Kochia scoparia (KSHSC) = assay: B2 Post-Emergence Efficacy - Test 2; details: 15 days after application, 0-100 scale
Method: as §2, §3

Orysa sativa (ORYSA) = assay: B2 Post-Emergence Efficacy - Test 2; details: 15 days after application; for Herbicidal activity ORYSA: 0-100 scale; for Herbicidal activity on a 0-100 scale, ORYSA: 0=no damage, 100=total kill
Method: as §2, §3

Setaria faberi (SETFA) [9] = assay: B2 Post-Emergence Efficacy - Test 2; details: 15 days after application, 0=no damage, 100=total kill
Method: as §2, §3

Stellaria media (STEME) = assay: B2 Post-Emergence Efficacy - Test 2; details: 15 days after application, 0-100 scale
Method: as §2, §3

[10] = system: Triticum aestivum (TRZAW); assay: B2 Post-Emergence Efficacy - Test 2; details: 15 days after application, 0-100 scale
Method: as §2, §3

Veronica persica (VERPE) = assay: B2 Post-Emergence Efficacy - Test 2; details: 15 days after application, 0-100 scale
Method: as §2, §3

Cc1nn(C)c(=O)c(-c2c(F)ccc(Cl)c2CCc2ccc(Cl)cc2)c1OC(=O)C(C)C [Compound 1.089, [5-[3-chloro-2-[2-(4-chlorophenyl)ethyl]-6-fluoro-phenyl]-1,3-dimethyl-6-oxo-pyridazin-4-yl] 2-methylpropanoate]
50: Herbicidal activity KCHSC (Kochia scoparia (KSHSC); 60 g/Ha) | Herbicidal activity ORYSA (Orysa sativa (ORYSA); 500 g/Ha) | Herbicidal activity on a 0-100 scale, ORYSA (Orysa sativa (ORYSA); 500 g/Ha)
20: Herbicidal activity HORVW (Hordeum vulgare (HORVW); 60 g/Ha) | Herbicidal activity HORVW (Hordeum vulgare (HORVW); 125 g/Ha) | Herbicidal activity KCHSC (Kochia scoparia (KSHSC); 30 g/Ha) | Herbicidal activity ORYSA (Orysa sativa (ORYSA); 250 g/Ha) | Herbicidal activity on a 0-100 scale, ORYSA (Orysa sativa (ORYSA); 250 g/Ha) | Herbicidal activity on a 0-100 scale, SETFA (Setaria faberi (SETFA) [9]; 30 g/Ha) | Herbicidal activity TRZAW ([10]; 60 g/Ha)
80: Herbicidal activity AMARE ([5]; 15 g/Ha) | Herbicidal activity AMARE ([5]; 30 g/Ha) | Herbicidal activity BIDPI (Bidens pilosa (BIDPI); 125 g/Ha) | Herbicidal activity BIDPI (Bidens pilosa (BIDPI); 250 g/Ha) | Herbicidal activity on a 0-100 scale, BRAPL ([6]; 15 g/Ha) | Herbicidal activity CHEAL ([7]; 15 g/Ha) | Herbicidal activity on a 0-100 scale, ECHCG ([8]; 15 g/Ha) | Herbicidal activity on a 0-100 scale, ECHCG ([8]; 30 g/Ha) | Herbicidal activity on a 0-100 scale, ECHCG ([8]; 60 g/Ha) | Herbicidal activity on a 0-100 scale, SETFA (Setaria faberi (SETFA) [9]; 500 g/Ha) | Herbicidal activity VERPE (Veronica persica (VERPE); 30 g/Ha)
90: Herbicidal activity AMARE ([5]; 60 g/Ha) | Herbicidal activity on a 0-100 scale, BRAPL ([6]; 30 g/Ha) | Herbicidal activity on a 0-100 scale, BRAPL ([6]; 250 g/Ha) | Herbicidal activity on a 0-100 scale, BRAPL ([6]; 500 g/Ha) | Herbicidal activity CHEAL ([7]; 30 g/Ha) | Herbicidal activity CHEAL ([7]; 60 g/Ha) | Herbicidal activity on a 0-100 scale, ECHCG ([8]; 125 g/Ha) | Herbicidal activity on a 0-100 scale, ECHCG ([8]; 250 g/Ha) | Herbicidal activity STEME (Stellaria media (STEME); 15 g/Ha) | Herbicidal activity STEME (Stellaria media (STEME); 30 g/Ha) | Herbicidal activity STEME (Stellaria media (STEME); 60 g/Ha) | Herbicidal activity STEME (Stellaria media (STEME); 125 g/Ha) | Herbicidal activity STEME (Stellaria media (STEME); 250 g/Ha) | Herbicidal activity STEME (Stellaria media (STEME); 500 g/Ha) | Herbicidal activity VERPE (Veronica persica (VERPE); 60 g/Ha) | Herbicidal activity VERPE (Veronica persica (VERPE); 125 g/Ha)
100: Herbicidal activity AMARE ([5]; 125 g/Ha) | Herbicidal activity AMARE ([5]; 250 g/Ha) | Herbicidal activity AMARE ([5]; 500 g/Ha) | Herbicidal activity BIDPI (Bidens pilosa (BIDPI); 500 g/Ha) | Herbicidal activity CHEAL ([7]; 125 g/Ha) | Herbicidal activity CHEAL ([7]; 250 g/Ha) | Herbicidal activity CHEAL ([7]; 500 g/Ha) | Herbicidal activity on a 0-100 scale, ECHCG ([8]; 500 g/Ha) | Herbicidal activity VERPE (Veronica persica (VERPE); 250 g/Ha) | Herbicidal activity VERPE (Veronica persica (VERPE); 500 g/Ha)
60: Herbicidal activity BIDPI (Bidens pilosa (BIDPI); 30 g/Ha) | Herbicidal activity HORVW (Hordeum vulgare (HORVW); 500 g/Ha) | Herbicidal activity KCHSC (Kochia scoparia (KSHSC); 125 g/Ha) | Herbicidal activity KCHSC (Kochia scoparia (KSHSC); 250 g/Ha) | Herbicidal activity KCHSC (Kochia scoparia (KSHSC); 500 g/Ha) | Herbicidal activity on a 0-100 scale, SETFA (Setaria faberi (SETFA) [9]; 125 g/Ha) | Herbicidal activity on a 0-100 scale, SETFA (Setaria faberi (SETFA) [9]; 250 g/Ha) | Herbicidal activity TRZAW ([10]; 250 g/Ha)
70: Herbicidal activity BIDPI (Bidens pilosa (BIDPI); 15 g/Ha) | Herbicidal activity BIDPI (Bidens pilosa (BIDPI); 60 g/Ha) | Herbicidal activity TRZAW ([10]; 500 g/Ha) | Herbicidal activity VERPE (Veronica persica (VERPE); 15 g/Ha)
0: Herbicidal activity ORYSA (Orysa sativa (ORYSA); 15 g/Ha) | Herbicidal activity on a 0-100 scale, ORYSA (Orysa sativa (ORYSA); 15 g/Ha) | Herbicidal activity ORYSA (Orysa sativa (ORYSA); 30 g/Ha) | Herbicidal activity on a 0-100 scale, ORYSA (Orysa sativa (ORYSA); 30 g/Ha) | Herbicidal activity ORYSA (Orysa sativa (ORYSA); 60 g/Ha) | Herbicidal activity on a 0-100 scale, ORYSA (Orysa sativa (ORYSA); 60 g/Ha) | Herbicidal activity on a 0-100 scale, SETFA (Setaria faberi (SETFA) [9]; 15 g/Ha) | Herbicidal activity TRZAW ([10]; 15 g/Ha) | Herbicidal activity TRZAW ([10]; 30 g/Ha)
10: Herbicidal activity HORVW (Hordeum vulgare (HORVW); 15 g/Ha) | Herbicidal activity HORVW (Hordeum vulgare (HORVW); 30 g/Ha) | Herbicidal activity KCHSC (Kochia scoparia (KSHSC); 15 g/Ha) | Herbicidal activity ORYSA (Orysa sativa (ORYSA); 125 g/Ha) | Herbicidal activity on a 0-100 scale, ORYSA (Orysa sativa (ORYSA); 125 g/Ha)
5 (5=80-100%): percentage damage caused to the plant, AMARE [1] | percentage damage caused to the plant, ECHCG [2] | percentage damage caused to the plant, IPOHE [3] | percentage damage caused to the plant, LOLPE (Lolium perenne (LOLPE)) | percentage damage caused to the plant, SETFA (Setaria faberi (SETFA) [4]) | percentage damage caused to the plant, SOLNI (Solanum nigrum (SOLNI))
30: Herbicidal activity HORVW (Hordeum vulgare (HORVW); 250 g/Ha) | Herbicidal activity on a 0-100 scale, SETFA (Setaria faberi (SETFA) [9]; 60 g/Ha) | Herbicidal activity TRZAW ([10]; 125 g/Ha)
